Literature values in patent US6379294B1, “Process for preparing esterquats” (Akzo Nobel N.V., priority 1999, dated 2002).

Details: salts of the tertiary amines as such; from Klomp, Kruka, Reijnhart, IBC Conference 1998

Structure (SMILES) | Inhibition of the growth of gas hydrates
CCCCCCCCCCN(CCCC)CCCC [di-n-butyl decyl amine] | inhibited the growth of gas hydrates
CCCCN(CCCC)CCCC [tri-n-butyl amine] | inhibited the growth of gas hydrates
